Measured values: patent US8119998B2, “Methods and systems for in situ physicochemical property testing” (Pion, Inc., priority 2008, dated 2012)
Values after ≈ are worked out from the molar mass of the structure shown.

Experiment: Miniaturized rotating disk dissolution and solubility of pressed pellet, biexponential fit
Assay type: physicochemical
Settings: pressed pellet 3.9 mm, five replicate profiles, 180 selected points, FIG. 12
Experimental: This example is based on the dissolution and solubility characteristics of the model drug carbamazepine, with data collected on a prototype instrument, utilizing a miniaturized rotating disk of pressed compound held as a pellet in a small stainless steel die. The average diameter of the pellets of material was measured to be 3.9 mm, corresponding to a nominal area of 0.12 cm^2, and the minimal amount of compound needed to make such pellets was about 5 mg, although more may be used. In this example, the solution volume was 15 mL, larger than the preferred volume of 3 mL. Over 1100 concentration measurements were acquired, in five replicate dissolution profiles. […] The powder “burst” would be associated with a high surface area, but would be limited to a small quantity of material: [formula] […] 2 with respect to time, evaluated at t=to, in the units of μg/min (with PABL in cm/s units), is DR^max=(Cpowder·Apowder+[…]·60 [3] The factor of 60 accounts for the conversion of ABL permeability into cm/min units. Intrinsic dissolution rate (IDR) is calculated as IDR=DR^max/Aeff, where Aeff is the effective area of the solid phase in contact with bulk solution. The effective surface area is defined as Aeff=δApowder+(1-δ)[…], where δ=[…]). The IDR is the maximum flux of material entering the solution phase through the interface solid-liquid interface (often evaluated at time near zero). […]

- IDR (intrinsic dissolution rate) (nominal area 0.12 cm^2, 15 mL): 25±1 μg/cm^2·min
- solubility (thermodynamic from solid, 15 mL, read-out: S (solubility)): 225 ± 6 µg/mL (≈ 952 µM)
SMILES: NC(=O)N1c2ccccc2C=Cc2ccccc21 [carbamazepine]
